≈ marks a conversion by molar mass, not a printed value. A value given as a limit tells only on which side of the number the result lay.

Holding throughout (format): functional
The test system of assay [1] is Staphylococcus aureus. The assay can be described thus: Antibacterial activity against Staphylococcus aureus ATCC 25923 by microdilution technique.
Assay [2] relates to Staphylococcus aureus. Briefly: Antibacterial activity against Staphylococcus aureus K1640 bearing S84L mutant GyrA and S80Y mutant GrlA by microdilution technique. A general note: Dilution methods test growth across graded concentrations, often in twofold steps.
The test system of assay [3] is Staphylococcus aureus. Briefly: Antibacterial activity against Staphylococcus aureus SA-K1902 bearing norA- deficient mutation by microdilution technique.
For assay [4], the system named is Staphylococcus aureus. Briefly: Antibacterial activity against Staphylococcus aureus K1035 bearing wild-type GyrA and S80F mutant GrlA by microdilution technique.
Assay [5] has as its system Staphylococcus aureus. The assay can be described thus: Antibacterial activity against Staphylococcus aureus SA-K1904 bearing norA++ efficient mutation by microdilution technique.
The test system of assay [6] is Escherichia coli. Briefly: Antibacterial activity against Escherichia coli ATCC 25922 by microdilution technique.
Assay [7] relates to Staphylococcus aureus. The assay can be described thus: Antibacterial activity against wild-type norA expressing Staphylococcus aureus SA-1199 by microdilution technique.
Assay [8] concerns Staphylococcus aureus. The assay can be described thus: Antibacterial activity against methicillin and ciprofloxacin-resistant Staphylococcus aureus 25A by microdilution technique.
Assay [9] concerns Staphylococcus aureus. Briefly: Antibacterial activity against Staphylococcus aureus K1134 bearing wild-type GyrA and S80Y mutant GrlA by microdilution technique.
The test system of assay [10] is Staphylococcus aureus. Briefly: Antibacterial activity against Staphylococcus aureus K1305 bearing wild-type GyrA and E84K mutant GrlA by microdilution technique.
Assay [11] relates to Staphylococcus aureus. The assay can be described thus: Antibacterial activity against Staphylococcus aureus SA-1199B norA++ and A116E GrlA mutation by microdilution technique.
Assay [12] has as its system Staphylococcus aureus. Briefly: Antibacterial activity against Staphylococcus aureus K1628 bearing S84L mutant GyrA and S80F mutant GrlA by microdilution technique.

One may read the MIC as the smallest concentration in the dilution series that meets the test's criterion for growth inhibition. Consider `COc1c(N2C[C@@H]3CCCN[C@@H]3C2)c(F)cc2c(=O)c(C(=O)O)cn(C3CC3)c12` [MOXIFLOXACIN], for which the MIC is under 0.08 mg/L in assay [1]; 2.5 mg/L (≈ 6.23 µM) in assay [2]; 0.08 mg/L (≈ 0.199 µM) in [3]; 0.31 mg/L (≈ 0.772 µM) in [4]; 0.08 mg/L (≈ 0.199 µM) in assay [5]; under 0.08 mg/L in assay [6]. For the same compound, the MIC came to 0.08 mg/L (≈ 0.199 µM) in assay [7]; 2 mg/L (≈ 4.98 µM) in [8]; 0.31 mg/L (≈ 0.772 µM) in assay [9]; 0.31 mg/L (≈ 0.772 µM) in assay [10]; 0.25 mg/L (≈ 0.623 µM) in assay [11]; 5 mg/L (≈ 12.5 µM) in assay [12].
As to `Cc1c(N2CCC3=C(C2)C(=O)CCS3)c(N)cc2c(=O)c(C(=O)O)cn(C3CC3)c12`, the minimum inhibitory concentration (MIC) in assay [1] was 0.25 mg/L (≈ 0.588 µM); in assay [2], over 10 mg/L; in assay [3], 0.31 mg/L (≈ 0.729 µM); in [4], 1.25 mg/L (≈ 2.94 µM); in assay [5] it was 0.31 mg/L (≈ 0.729 µM); in assay [6], 1 mg/L (≈ 2.35 µM). The MIC in assay [7] is 0.31 mg/L (≈ 0.729 µM); in assay [8] it was 4 mg/L (≈ 9.4 µM); in assay [9] it was 1.25 mg/L (≈ 2.94 µM); in assay [10], 1.25 mg/L (≈ 2.94 µM); in assay [11], 0.63 mg/L (≈ 1.48 µM); in [12], over 10 mg/L.
In the case of `CO/N=C1\CCSC2=C1CN(c1c(N)cc3c(=O)c(C(=O)O)cn(C4CC4)c3c1C)CC2`, the MIC in assay [1] is 0.16 mg/L (≈ 0.352 µM); in assay [2], over 10 mg/L; in assay [3] it was 0.31 mg/L (≈ 0.682 µM); in assay [4] it was 1.25 mg/L (≈ 2.75 µM); in assay [5], 0.31 mg/L (≈ 0.682 µM); in assay [6] it was 16 mg/L (≈ 35.2 µM). Further, the MIC in assay [7] was 0.31 mg/L (≈ 0.682 µM); in assay [8], 32 mg/L (≈ 70.4 µM); in [9], 2.5 mg/L (≈ 5.5 µM); in assay [10] it was 1.25 mg/L (≈ 2.75 µM); in assay [11], 0.31 mg/L (≈ 0.682 µM); in assay [12], over 10 mg/L.
On to `CC1CSC2=C(CN(c3cc4c(cc3N)c(=O)c(C(=O)O)cn4C3CC3)CC2)C1=O` (stereo not drawn), for which the MIC stood at 6.25 mg/L (≈ 14.7 µM) in assay [1]; 1.56 mg/L (≈ 3.67 µM) in [3]; 6.25 mg/L (≈ 14.7 µM) in assay [5]; 64 mg/L (≈ 150 µM) in [6]; 3.13 mg/L (≈ 7.36 µM) in assay [7]; 16 mg/L (≈ 37.6 µM) in assay [8]. The same compound gave a minimum inhibitory concentration (MIC) in assay [11] of 12.5 mg/L (≈ 29.4 µM).
For the compound `CO/N=C1/C2=C(CCN(c3c(N)cc4c(=O)c(C(=O)O)cn(C5CC5)c4c3C)C2)SCC1C` (stereo not drawn), the minimal inhibitory concentration (MIC) in [1] was 16 mg/L (≈ 34.1 µM); in assay [3], 6.25 mg/L (≈ 13.3 µM); in assay [5] it was 6.25 mg/L (≈ 13.3 µM); in assay [6] it was 8 mg/L (≈ 17.1 µM); in [7], 3.13 mg/L (≈ 6.68 µM); in assay [8], 8 mg/L (≈ 17.1 µM). In assay [11], inhibition of growth (MIC) required 3.13 mg/L (≈ 6.68 µM).
Regarding `Cc1c(N2CCC3=C(C2)C(O)CCS3)c(N)cc2c(=O)c(C(=O)O)cn(C3CC3)c12` (stereo not drawn), the MIC in assay [1] was over 128 mg/L; in [3] it was over 100 mg/L; in assay [5], over 100 mg/L; in [6], over 128 mg/L; in [7], over 100 mg/L; in [8], over 128 mg/L. The compound also had an MIC in assay [11] of over 100 mg/L.
As for `CO/N=C1\CCSC2=C1CN(c1cc3c(cc1F)c(=O)c(C(=O)O)cn3C1CC1)CC2`, the MIC was 0.25 mg/L (≈ 0.564 µM) in assay [1]; 1.25 mg/L (≈ 2.82 µM) in assay [3]; 1.25 mg/L (≈ 2.82 µM) in assay [5]; 32 mg/L (≈ 72.2 µM) in [6]; 1.25 mg/L (≈ 2.82 µM) in [7]; 1 mg/L (≈ 2.25 µM) in assay [8]. Besides, the minimal inhibitory concentration (MIC) in assay [11] came out at 2.5 mg/L (≈ 5.64 µM).
Consider `CO/N=C1/C2=C(CCN(c3cc4c(cc3N)c(=O)c(C(=O)O)cn4C3CC3)C2)SCC1C` (stereo not drawn), for which the minimum inhibitory concentration (MIC) in [1] stood at 4 mg/L (≈ 8.8 µM); in [3] it was 3.13 mg/L (≈ 6.89 µM); in assay [5] it was 3.13 mg/L (≈ 6.89 µM); in [6] it was 128 mg/L (≈ 282 µM); in assay [7], 6.25 mg/L (≈ 13.7 µM); in assay [8], 4 mg/L (≈ 8.8 µM). This compound yielded an MIC in [11] of 6.25 mg/L (≈ 13.7 µM).
In the case of `CO/N=C1/C2=C(CCN(c3cc4c(cc3F)c(=O)c(C(=O)O)cn4C3CC3)C2)SCC1C` (stereo not drawn), the minimum inhibitory concentration (MIC) in assay [1] came out at 2 mg/L (≈ 4.37 µM); in [3], 2.5 mg/L (≈ 5.46 µM); in assay [5], 2.5 mg/L (≈ 5.46 µM); in assay [6], 64 mg/L (≈ 140 µM); in assay [7], 2.5 mg/L (≈ 5.46 µM); in assay [8] it was 8 mg/L (≈ 17.5 µM). Also, it took 5 mg/L (≈ 10.9 µM) to inhibit growth in assay [11] (MIC).
Turning to `Cc1c(N2CCC3=C(C2)/C(=N/O)CCS3)c(N)cc2c(=O)c(C(=O)O)cn(C3CC3)c12`, the MIC in [1] is 0.31 mg/L (≈ 0.704 µM); in assay [3] it was 0.63 mg/L (≈ 1.43 µM); in [5] it was 0.63 mg/L (≈ 1.43 µM); in assay [6], 0.5 mg/L (≈ 1.14 µM); in assay [7] it was 0.63 mg/L (≈ 1.43 µM); in assay [11], 2.5 mg/L (≈ 5.68 µM).
Turning to `Nc1cc2c(=O)c(C(=O)O)cn(C3CC3)c2cc1N1CCC2=C(C1)C(O)CCS2` (stereo not drawn), the minimum inhibitory concentration (MIC) worked out at 16 mg/L (≈ 38.7 µM) in assay [1]; 12.5 mg/L (≈ 30.2 µM) in assay [3]; 25 mg/L (≈ 60.5 µM) in assay [5]; 128 mg/L (≈ 310 µM) in assay [6]; 25 mg/L (≈ 60.5 µM) in [7]; 128 mg/L (≈ 310 µM) in assay [8]. This compound came in with an MIC in assay [11] of over 100 mg/L.
Regarding `Nc1cc2c(=O)c(C(=O)O)cn(C3CC3)c2cc1N1CCC2=C(C1)C(=O)CCS2`, the minimal inhibitory concentration (MIC) is 6.25 mg/L (≈ 15.2 µM) in [1]; 3.13 mg/L (≈ 7.61 µM) in assay [3]; 6.25 mg/L (≈ 15.2 µM) in assay [5]; 128 mg/L (≈ 311 µM) in assay [6]; 1.56 mg/L (≈ 3.79 µM) in [7]; over 128 mg/L in [8]. In [11], this compound registered a minimal inhibitory concentration (MIC) of 25 mg/L (≈ 60.8 µM).

The values are drawn from ChEMBL document CHEMBL1155486, “From 6-aminoquinolone antibacterials to 6-amino-7-thiopyranopyridinylquinolone ethyl esters as inhibitors of Staphylococcus aureus multidrug efflux pumps” (2010).
